Test results taken from patent US20240041877A1, “DOSAGE REGIME AND METHOD FOR TREATING PULMONARY ARTERIAL HYPERTENSION” (Altavant Sciences GmbH, priority 2019, published 2024).

What was measured:
Type in all cases: in vivo, human
[1] = test system: urine 5-HIAA (a PD marker of 5-HT synthesis); experiment: Part 2 (MAD) biomarker: urine 5-HIAA/24 hours (measured, adjusted, estimated, per gram creatinine); conditions: for Measured urine 5-HIAA: mean difference of % change from Day 1 between KAR5585 and placebo / Measured urine 5-HIAA: mean difference of absolute change from Day 1 between KAR5585 and placebo: no creatinine adjustment
Excerpt: (§1) Biomarkers were to be evaluated in Part 2 by measuring concentrations of serotonin (5-hydroxytryptamine [5-HT]) in serum and 5-hydroxyindoleacetic acid (5-HIAA) in plasma and urine. As well, the relationship of biomarkers to PK parameters was to be evaluated.
(§2) The biomarker analysis was to be based on the Biomarker Population (all subjects with evaluable biomarker measurements at baseline [Day 1 predose] and at least one after dosing [Day 7 or Day 14]).
(§3) Biomarker data were to be collected only in Part 2. The following biomarkers were to be analyzed: • Serum 5-HT • Plasma 5-HIAA • Urine 5-HIAA/24 hours (as measured, adjusted, estimated, and per gram creatinine)
(§4) Summary statistics (mean, standard deviation [SD], median, minimum [Min], and maximum [Max]) were to be tabulated for each biomarker, by Cohort, with absolute and relative (%) changes from Day 1 predose.
(§5) The values were to be tabulated with P values testing whether the difference of changes was equal to 0.
(§6) The biomarker portion of the study was conducted in Part 2 MAD using the Biomarker Population. The biomarkers evaluated were serum 5-HT and plasma 5-HIAA, as well as urine 5-HIAA/24 hours (as measured, adjusted, estimated, and per gram creatinine). Urinary 5-HIAA was determined by a validated (21 C.F.R. 58, GLP-compliant) method using liquid chromatographic separation and tandem mass spectrometry detection.
Urine 5 HIAA/24 hour was analyzed in 4 different manners: as measured in the 24-hour collection and (in order to correct for any collection errors) adjusted for creatinine excretion, estimated by the expected creatinine excretion for the subject (as defined in and expressed per gram creatinine. Results were similar for each of the 4 manners and are presented in this report for measured urine. Tables and figures for adjusted, estimated, and per-gram creatinine results are presented in Section 14.

serum 5-HT = experiment: Part 2 (MAD) biomarker: serum 5-HT change from Day 1 predose
Excerpt: as §1, §2, §3, §4, §5, §6

[2] = Safety and tolerability in healthy adult subjects (SAD and MAD)
[3] = Part 1 (SAD): urine pharmacokinetics (amount excreted, renal clearance) after a single oral dose of KAR5585
[4] = all doses pooled, predose Day 7
[5] = all doses pooled, predose Day 14
[6] = KAR5585 in urine, 1200 mg KAR5585 single oral dose, mean

Q: Which “Measured urine 5-HIAA: mean difference of % change from Day 1 between KAR5585 and placebo” value ([1]; 400 mg fed, Day 14) does the source give for `CCOC(=O)[C@@H]1CC2(CCN(c3cc(O[C@H](c4ccc(Cl)cc4-c4ccccc4)C(F)(F)F)nc(N)n3)CC2)CN1` [KAR5585, (S)-ethyl 8-(2-amino-6-((R)-1-(5-chloro-[1,1′-biphenyl]-2-yl)-2,2,2-trifluoroethoxy)pyrimidin-4-yl)-2,8-diazaspiro[4.5]decane-3-carboxylate] here?
A: −54.82%

Q: And the “Measured urine 5-HIAA: mean difference of absolute change from Day 1 between KAR5585 and placebo” value ([1]; 400 mg fed, Day 14)?
A: −2.04 mg/24 hours

Q: What about the “absolute and percent changes from Day 1 in creatinine-normalized urine 5-HIAA vs placebo, significance” value ([1]; Days 7 and 14) of the same molecule?
A: statistically significant in favor of KAR5585 versus placebo in all dose groups

Q: What about the “mean percent change in measured urine 5-HIAA from Day 1 to Day 7” value ([1]; KAR5585 400 mg BID, fed) of the same molecule?
A: −39.97%

Q: And the “mean percent change in measured urine 5-HIAA from Day 1 to Day 14” value ([1]; KAR5585 400 mg BID, fed, listed as KAR5575)?
A: −50.85%

Q: And the “Measured urine 5-HIAA: mean difference of % change from Day 1 between KAR5585 and placebo” value ([1]; all doses pooled, Day 7)?
A: −40.03%

Q: What about the “Measured urine 5-HIAA: mean difference of absolute change from Day 1 between KAR5585 and placebo” value ([1]; all doses pooled, Day 7) of the same molecule?
A: −1.42 mg/24 hours

Q: What about the “Measured urine 5-HIAA: mean difference of % change from Day 1 between KAR5585 and placebo” value ([1]; all doses pooled, Day 14) of the same molecule?
A: −36.39%

Q: And the “Measured urine 5-HIAA: mean difference of absolute change from Day 1 between KAR5585 and placebo” value ([1]; all doses pooled, Day 14)?
A: −1.54 mg/24 hours

Q: And the “Serum 5-HT: mean difference of % change from Day 1 between KAR5585 and placebo” value (“Serum 5-HT: mean difference of % change” below) (serum 5-HT; 100 mg fasting, predose Day 7)?
A: −10.97%

Q: What about the “Serum 5-HT: mean difference of absolute change from Day 1 between KAR5585 and placebo” value (serum 5-HT; 100 mg fasting, predose Day 7) of the same molecule?
A: -12.97 ng/mL

Q: And the “Serum 5-HT: mean difference of % change” value (serum 5-HT; 100 mg fasting, predose Day 14)?
A: −15.92%

Q: And the “Serum 5-HT: mean difference of absolute change from Day 1 between KAR5585 and placebo” value (serum 5-HT; 100 mg fasting, predose Day 14)?
A: -17.39 ng/mL

Q: And the “Serum 5-HT: mean difference of % change” value (serum 5-HT; 100 mg fed, predose Day 7)?
A: −11.02%

Q: And the “Serum 5-HT: mean difference of absolute change from Day 1 between KAR5585 and placebo” value (serum 5-HT; 100 mg fed, predose Day 7)?
A: -15.75 ng/mL

Q: And the “Serum 5-HT: mean difference of % change” value (serum 5-HT; 100 mg fed, predose Day 14)?
A: −0.47%

Q: What about the “Serum 5-HT: mean difference of absolute change from Day 1 between KAR5585 and placebo” value (serum 5-HT; 100 mg fed, predose Day 14) of the same molecule?
A: 5.08 ng/mL

Q: What about the “Serum 5-HT: mean difference of % change” value (serum 5-HT; 200 mg fed, predose Day 7) of the same molecule?
A: −21.64%

Q: And the “Serum 5-HT: mean difference of absolute change from Day 1 between KAR5585 and placebo” value (serum 5-HT; 200 mg fed, predose Day 7)?
A: -28.53 ng/mL

Q: What about the “Serum 5-HT: mean difference of % change” value (serum 5-HT; 200 mg fed, predose Day 14) of the same molecule?
A: −11.43%

Q: What about the “Serum 5-HT: mean difference of absolute change from Day 1 between KAR5585 and placebo” value (serum 5-HT; 200 mg fed, predose Day 14) of the same molecule?
A: -5.79 ng/mL

Q: And the “Serum 5-HT: mean difference of % change” value (serum 5-HT; 400 mg fed, predose Day 7)?
A: 2.09%

Q: And the “Serum 5-HT: mean difference of absolute change from Day 1 between KAR5585 and placebo” value (serum 5-HT; 400 mg fed, predose Day 7)?
A: 16.47 ng/mL

Q: What about the “Serum 5-HT: mean difference of % change” value (serum 5-HT; 400 mg fed, predose Day 14) of the same molecule?
A: −50.02%

Q: What about the “Serum 5-HT: mean difference of absolute change from Day 1 between KAR5585 and placebo” value (serum 5-HT; 400 mg fed, predose Day 14) of the same molecule?
A: -84.50 ng/mL

Q: What about the “mean difference vs placebo of percent changes from Day 1 in serum 5-HT concentration, significance” value (serum 5-HT; Day 7) of the same molecule?
A: statistically significant compared to placebo on Day 7 in favor of the 200 mg fed dose group

Q: And the “Serum 5-HT: mean difference of % change” value (serum 5-HT; [4])?
A: −10.39%

Q: What about the “Serum 5-HT: mean difference of absolute change from Day 1 between KAR5585 and placebo” value (serum 5-HT; [4]) of the same molecule?
A: -10.19 ng/mL

Q: And the “Serum 5-HT: mean difference of % change” value (serum 5-HT; [5])?
A: −20.26%

Q: And the “Serum 5-HT: mean difference of absolute change from Day 1 between KAR5585 and placebo” value (serum 5-HT; [5])?
A: -27.14 ng/mL

Q: And the safety and tolerability ([2]; 100 mg (fasting), 100, 200, 400 mg (fed) BID up to 14 days, 36 healthy adult subjects)?
A: safe and well-tolerated

Q: And the tolerability ([2]; 400 mg single oral dose, fed, 9 healthy adult subjects)?
A: well-tolerated

Q: And the “tolerability, whole trial” value ([2]; Part 1 and Part 2, all doses)?
A: well tolerated throughout the trial

Q: And the safety and tolerability ([2]; single ascending oral dose 100-2000 mg, fasting, 54 healthy adult subjects)?
A: safe and well-tolerated

Q: And the “Amount Excreted (Ae)” value [3, 6]?
A: 0 µg

Q: What about the “Total Excreted (%)” value [3, 6] of the same molecule?
A: 0%

Q: And the “Total Excreted (%)” value ([3]; KAR5585 in urine, 2000 mg KAR5585 single oral dose, mean)?
A: 0.0000751%

Q: And the CL renal ([3]; human, urine, po, 400 mg, KAR5585, 400 mg (Fasted) KAR5585 single oral dose, mean)?
A: 0.858 mL/min

Q: And the “amount excreted (Ae) in urine” value ([3]; single oral KAR5585, all dose levels)?
A: less than 0.004 % of the administered dose
